Test system: dopaminergic neurons
Assay: MPTP model of Parkinson's Disease in mice (MPTP Neurodegenerative Model)
Assay type: in vivo
Details: recovery of TH-stained dopaminergic neurons in striatum; male CD1 mice, MPTP 30 mg/kg i.p. 5 days; test compound 4 mg/kg s.c. concurrent with MPTP plus 5 further days; sacrificed at 18 days
Method: MPTP lesioning of dopaminergic neurons in mice is used as an animal model of Parkinson's Disease. Four week old male CD1 white mice are dosed i.p. with 30 mg/kg of MPTP for 5 days. Test compounds (4 mg/kg), or vehicle, are administered s.c. along with the MPTP for 5 days, as well as for an additional 5 days following cessation of MPTP treatment. At 18 days following MPTP treatment, the animals are sacrificed and the striata dissected and perfusion-fixed. Immunostaining is performed on saggital and coronal brain sections using anti-tyrosine hydroxylase […] to quantitate survival and recovery of dopaminergic neurons. In animals treated with MPTP and vehicle, a substantial loss of functional dopaminergic terminals is observed as compared to non-lesioned animals. Lesioned animals receiving test compounds show a significant recovery of TH-stained dopaminergic neurons. This model presents quantitation for the recovery of TH-positive dopaminergic neurons in the striatum of animals receiving the compounds of the present invention. […]
Percent striatal innervation density was quantitated is in brain sections with an anti-tyrosine hydroxylase immunoglobulin, which is indicative of functional dopaminergic neurons. […]

## O=C(O)[C@@H]1CCCN1S(=O)(=O)Cc1ccccc1 [Compound A, (2S)-N-(benzylsulfonyl)-2-pyrrolidinecarboxylic Acid]
  % Recovery: 24.4%
